According to patent US10800792B2, “Inhibitors of Bruton's tyrosine kinase and method of their use” (JANSSEN PHARMACEUTICA NV, priority 2015, dated 2020):

Target: unphosphorylated-BTK kinase domain (UP-BTK), GST-tagged human BTK (389-659aa) (Homo sapiens (Human), UniProt Q06187)
Test: BTK kinase Lanthascreen binding assay
Details: Lanthascreen tracer competition, 60 minutes incubation; pIC50 = negative log of the IC50 in molar
Outline: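 Tracer-displacement binding assay against the non-phosphorylated enzyme, read by Lanthascreen. Reported: pIC50.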

Sequence of unphosphorylated-BTK kinase domain (UP-BTK), GST-tagged human BTK (389-659aa) (Q06187 389-659): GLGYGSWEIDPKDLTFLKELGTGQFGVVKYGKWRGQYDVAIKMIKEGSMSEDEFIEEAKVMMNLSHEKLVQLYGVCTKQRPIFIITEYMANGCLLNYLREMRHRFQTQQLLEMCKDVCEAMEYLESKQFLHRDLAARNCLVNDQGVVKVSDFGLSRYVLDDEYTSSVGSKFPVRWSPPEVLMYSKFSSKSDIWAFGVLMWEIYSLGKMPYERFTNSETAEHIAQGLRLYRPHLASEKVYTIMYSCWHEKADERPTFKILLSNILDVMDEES

Row | Structure (SMILES) | BTK_I_binding pIC50
1 | CC(C)(C)S(=O)(=O)c1ccc(N2C(=O)Nc3c(C(=O)N[C@@H]4CCCNC4)sc4nccc2c34)cc1 [Example 650, (R)-5-(4-(tert-Butylsulfonyl)phenyl)-4-oxo-N-(piperidin-3-yl)-4,5-dihydro-3H-1-thia-3,5,8-triazaacenaphthylene-2-carboxamide] | <5
2 | CC(C)(C)OC(=O)N1CCC[C@@H](NC(=O)c2sc3nccc4c3c2NC(=O)N4c2ccc(S(=O)(=O)C(C)(C)C)cc2)C1 [Example 651, (R)-tert-Butyl 3-(5-(4-(tert-butylsulfonyl)phenyl)-4-oxo-4,5-dihydro-3H-1-thia-3,5,8-triazaacenaphthylene-2-carboxamido)piperidine-1-carboxylate] | <5
3 | CC(C)(C)OC(=O)N1CCC[C@@H](NC(=O)c2sc3nccc4c3c2NC(=O)N4c2ccc(OC(C)(C)C)cc2)C1 [Example 652, (R)-tert-Butyl 3-(5-(4-(tert-butoxy)phenyl)-4-oxo-4,5-dihydro-3H-1-thia-3,5,8-triazaacenaphthylene-2-carboxamido)piperidine-1-carboxylate] | <5
4 | CC(C)(C)OC(=O)N1CCC[C@@H](NC(=O)c2sc3nccc4c3c2NC(=O)N4c2ccc3c(c2)OC(F)(F)O3)C1 [Example 653, (R)-tert-Butyl 3-(5-(2,2-difluorobenzo[d][1,3]dioxol-5-yl)-4-oxo-4,5-dihydro-3H-1-thia-3,5,8-triazaacenaphthylene-2-carboxamido)piperidine-1-carboxylate] | <5
5 | CC(C)(C)OC(=O)N1CCC[C@@H](NC(=O)c2sc3nccc4c3c2NC(=O)N4c2ccc(OC3CCC3)nc2)C1 [Example 654, (R)-tert-Butyl 3-(5-(6-cyclobutoxypyridin-3-yl)-4-oxo-4,5-dihydro-3H-1-thia-3,5,8-triazaacenaphthylene-2-carboxamido)piperidine-1-carboxylate] | <5
6 | Cc1nc(Oc2ccccc2)cnc1N1C(=O)Nc2c(C(=O)N[C@@H]3CCCNC3)sc3nccc1c23 [Example 656, (R)-5-(3-Methyl-5-phenoxypyrazin-2-yl)-4-oxo-N-(piperidin-3-yl)-4,5-dihydro-3H-1-thia-3,5,8-triazaacenaphthylene-2-carboxamide] | 6.2
7 | C=CC(=O)N1CCC[C@@H](NC(=O)c2sc3nccc4c3c2NC(=O)N4c2cnc(OC3CCC3)cc2C)C1 [Example 672, (R)—N-(1-Acryloylpiperidin-3-yl)-5-(6-cyclobutoxy-4-methylpyridin-3-yl)-4-oxo-4,5-dihydro-3H-1-thia-3,5,8-triazaacenaphthylene-2-carboxamide] | 7.6
8 | C=CC(=O)N1CCC[C@@H](NC(=O)c2sc3nccc4c3c2NC(=O)N4c2ccnc(C3CCCCC3)c2)C1 [Example 677, (R)—N-(1-Acryloylpiperidin-3-yl)-5-(2-cyclohexylpyridin-4-yl)-4-oxo-4,5-dihydro-3H-1-thia-3,5,8-triazaacenaphthylene-2-carboxamide] | 7.3
9 | C=CC(=O)N1C[C@H](NC(=O)c2sc3nccc4c3c2NC(=O)N4c2cccc(-c3cccc(F)c3F)c2)C[C@H](OC)C1 [Example 679, N-((3R,5S)-1-Acryloyl-5-methoxypiperidin-3-yl)-5-(2′3′-difluoro-[1,1′-biphenyl]-3-yl)-4-oxo-4,5-dihydro-3H-1-thia-3,5,8-triazaacenaphthylene-2-carboxamide] | 7.8
10 | C=CC(=O)N1CCC[C@@H](NC(=O)c2sc3nccc4c3c2NC(=O)N4c2ccc(OC3CCC3)nc2)C1 [Example 687, (R)—N-(1-Acryloylpiperidin-3-yl)-5-(6-cyclobutoxypyridin-3-yl)-4-oxo-4,5-dihydro-3H-1-thia-3,5,8-triazaacenaphthylene-2-carboxamide] | 7.5
11 | C=CC(=O)N1CCC[C@@H](NC(=O)c2sc3nccc4c3c2NC(=O)N4c2cccc(CC(C)C)c2)C1 [Example 689, (R)—N-(1-Acryloylpiperidin-3-yl)-5-(3-isobutylphenyl)-4-oxo-4,5-dihydro-3H-1-thia-3,5,8-triazaacenaphthylene-2-carboxamide] | 7.6

Other lines, results leading:

Row | BTK_I_binding pIC50 | Structure (SMILES)
12 | 8.0 | C=CC(=O)N1CC[C@@H](O)[C@H](NC(=O)c2sc3nccc4c3c2NC(=O)N4c2ccc(Oc3ccccc3)cc2)C1 [Example 655, N-((3R,4R)-1-Acryloyl-4-hydroxypiperidin-3-yl)-4-oxo-5-(4-phenoxyphenyl)-4,5-dihydro-3H-1-thia-3,5,8-triazaacenaphthylene-2-carboxamide]
13 | 7.7 | C=CC(=O)N1CCC[C@@H](NC(=O)c2sc3nccc4c3c2NC(=O)N4c2ncc(Oc3ccccc3)nc2C)C1 [Example 657, (R)—N-(1-Acryloylpiperidin-3-yl)-5-(3-methyl-5-phenoxypyrazin-2-yl)-4-oxo-4,5-dihydro-3H-1-thia-3,5,8-triazaacenaphthylene-2-carboxamide]
14 | 6.6 | O=C(N[C@@H]1CNCC[C@H]1O)c1sc2nccc3c2c1NC(=O)N3c1ccc(Oc2ccccc2)cc1 [Example 658, N-((3R,4R)-4-Hydroxypiperidin-3-yl)-4-oxo-5-(4-phenoxyphenyl)-4,5-dihydro-3H-1-thia-3,5,8-triazaacenaphthylene-2-carboxamide]
15 | 7.8 | C=CC(=O)N1CCC[C@@H](NC(=O)c2sc3nccc4c3c2NC(=O)N4c2ncc(Oc3ccccc3)cn2)C1 [Example 665, (R)—N-(1-Acryloylpiperidin-3-yl)-4-oxo-5-(5-phenoxypyrimidin-2-yl)-4,5-dihydro-3H-1-thia-3,5,8-triazaacenaphthylene-2-carboxamide]
16 | 7.9 | C=CC(=O)N1CCC[C@@H](NC(=O)c2sc3nccc4c3c2NC(=O)N4c2cnc(Oc3ccccc3)cc2C)C1 [Example 667, (R)—N-(1-Acryloylpiperidin-3-yl)-5-(4-methyl-6-phenoxypyridin-3-yl)-4-oxo-4,5-dihydro-3H-1-thia-3,5,8-triazaacenaphthylene-2-carboxamide]
17 | 8.2 | C=CC(=O)N1CCC[C@@H](NC(=O)c2sc3nccc4c3c2NC(=O)N4c2ccc(Oc3ccccc3)nc2C)C1 [Example 670, (R)—N-(1-Acryloylpiperidin-3-yl)-5-(2-methyl-6-phenoxypyridin-3-yl)-4-oxo-4,5-dihydro-3H-1-thia-3,5,8-triazaacenaphthylene-2-carboxamide]
18 | 8.2 | C=CC(=O)N1CC[C@@H](NC(=O)c2sc3nccc4c3c2NC(=O)N4c2cccc(-c3cccc(F)c3F)c2)C1 [Example 673, (R)—N-(1-Acryloylpyrrolidin-3-yl)-5-(2′,3′-difluoro-[1,1′-biphenyl]-3-yl)-4-oxo-4,5-dihydro-3H-1-thia-3,5,8-triazaacenaphthylene-2-carboxamide]
19 | 8.2 | C=CC(=O)N1C[C@@H](O)C[C@@H](NC(=O)c2sc3nccc4c3c2NC(=O)N4c2cccc(-c3cccc(F)c3F)c2)C1 [Example 674, N-((3R,5S)-1-Acryloyl-5-hydroxypiperidin-3-yl)-5-(2′,3′-difluoro-[1,1′-biphenyl]-3-yl)-4-oxo-4,5-dihydro-3H-1-thia-3,5,8-triazaacenaphthylene-2-carboxamide]
20 | 7.3 | C=CC(=O)N1CCC[C@@H](NC(=O)c2sc3nccc4c3c2NC(=O)N4c2cnnc(-c3ccccc3)c2)C1 [Example 678, (R)—N-(1-Acryloylpiperidin-3-yl)-4-oxo-5-(6-phenylpyridazin-4-yl)-4,5-dihydro-3H-1-thia-3,5,8-triazaacenaphthylene-2-carboxamide]
21 | 7.3 | C=CC(=O)N1CC[C@@H](NC(=O)c2sc3nccc4c3c2NC(=O)N4c2ccc(Oc3ccccc3)nc2)C1 [Example 680, (R)—N-(1-Acryloylpyrrolidin-3-yl)-4-oxo-5-(6-phenoxypyridin-3-yl)-4,5-dihydro-3H-1-thia-3,5,8-triazaacenaphthylene-2-carboxamide]
22 | 7.7 | CC(=O)N1CCC[C@H]1/C=C(\C#N)C(=O)N1CCC[C@@H](NC(=O)c2sc3nccc4c3c2NC(=O)N4c2ccc(Oc3ccccc3)cc2C)C1 [Example 681, N—((R)-1-((*E)-3-((S)-1-Acetylpyrrolidin-2-yl)-2-cyanoacryloyl)piperidin-3-yl)-5-(2-methyl-4-phenoxyphenyl)-4-oxo-4,5-dihydro-3H-1-thia-3,5,8-triazaacenaphthylene-2-carboxamide]
23 | 7.7 | CC(=O)N1CCC[C@@H]1/C=C(\C#N)C(=O)N1CCC[C@@H](NC(=O)c2sc3nccc4c3c2NC(=O)N4c2ccc(Oc3ccccc3)cc2C)C1 [Example 683, N—((R)-1-((E)-3-((R)-1-Acetylpyrrolidin-2-yl)-2-cyanoacryloyl)piperidin-3-.l)-5-(2-methyl-4-phenoxyphenyl)-4-oxo-4,5-dihydro-3H-1-thia-3,5,8-triazaacenaphthylene-2-carboxamide]
24 | 8.1 | C=CC(=O)N1CCC[C@@H](NC(=O)c2sc3nccc4c3c2NC(=O)N4c2cc(-c3ccccc3)ncn2)C1 [Example 685, (R)—N-(1-Acryloylpiperidin-3-yl)-4-oxo-5-(6-phenylpyrimidin-4-yl)-4,5-dihydro-3H-1-thia-3,5,8-triazaacenaphthylene-2-carboxamide]
25 | 7.6 | C=CC(=O)N1CCC[C@@H](NC(=O)c2sc3nccc4c3c2NC(=O)N4c2ccc(Oc3ccccc3)c(Cl)c2)C1 [Example 686, (R)—N-(1-Acryloylpiperidin-3-yl)-5-(3-chloro-4-phenoxyphenyl)-4-oxo-4,5-dihydro-3H-1-thia-3,5,8-triazaacenaphthylene-2-carboxamide]
26 | 7.5 | C=CC(=O)N1CCC[C@@H](NC(=O)c2sc3nccc4c3c2NC(=O)N4c2cc(-c3ccccc3)ccc2C)C1 [Example 688, (R)—N-(1-Acryloylpiperidin-3-yl)-5-(4-methyl-[1,1′-biphenyl]-3-yl)-4-oxo-4,5-dihydro-3H-1-thia-3,5,8-triazaacenaphthylene-2-carboxamide]
